In the supplement of paper PMC13380429:

Columns and labels:
Conditions in all cases: 72 h
Caco-2 [1] = experiment: cell viability relative to DMSO; higher = less toxic
Calu-3 [2] = experiment: as above
HepG2 [3] = experiment: as above
U2OS [4] = experiment: as above
Vero E6 [5] = experiment: as above
Caco-2 [6] = experiment: relative viability EC50 (midpoint between 100% and the lowest measured viability); higher = less toxic
Calu-3 [7] = experiment: as above
U2OS [8] = experiment: as above
Vero E6 [9] = experiment: as above
Caco-2 [10] = experiment: drug sensitivity score (DSS) for viability; higher = more toxic; extreme values may be limits of the assay
Calu-3 [11] = experiment: as above
HepG2 [12] = experiment: as above
U2OS [13] = experiment: as above
Vero E6 [14] = experiment: as above
HepG2 [15] = experiment: relative viability EC50 (midpoint between 100% and the lowest measured viability); higher = less toxic

SMILES	cell viability (Caco-2 [1]; 1 nM) [%]	cell viability (Caco-2 [1]; 10 nM) [%]	cell viability (Caco-2 [1]; 100 nM) [%]	cell viability (Caco-2 [1]; 1000 nM) [%]	cell viability (Caco-2 [1]; 10000 nM) [%]	cell viability (Calu-3 [2]; 1 nM) [%]	cell viability (Calu-3 [2]; 10 nM) [%]	cell viability (Calu-3 [2]; 100 nM) [%]	cell viability (Calu-3 [2]; 1000 nM) [%]	cell viability (Calu-3 [2]; 10000 nM) [%]	cell viability (HepG2 [3]; 1 nM) [%]	cell viability (HepG2 [3]; 10 nM) [%]	cell viability (HepG2 [3]; 100 nM) [%]	cell viability (HepG2 [3]; 1000 nM) [%]	cell viability (HepG2 [3]; 10000 nM) [%]	cell viability (U2OS [4]; 1 nM) [%]	cell viability (U2OS [4]; 10 nM) [%]	cell viability (U2OS [4]; 100 nM) [%]	cell viability (U2OS [4]; 1000 nM) [%]	cell viability (U2OS [4]; 10000 nM) [%]	cell viability (Vero E6 [5]; 1 nM) [%]	cell viability (Vero E6 [5]; 10 nM) [%]	cell viability (Vero E6 [5]; 100 nM) [%]	cell viability (Vero E6 [5]; 1000 nM) [%]	cell viability (Vero E6 [5]; 10000 nM) [%]	relative viability EC50 (Caco-2 [6]) [µM]	relative viability EC50 (Calu-3 [7]) [µM]	relative viability EC50 (U2OS [8]) [µM]	relative viability EC50 (Vero E6 [9]) [µM]	drug sensitivity score (Caco-2 [10])	drug sensitivity score (Calu-3 [11])	drug sensitivity score (HepG2 [12])	drug sensitivity score (U2OS [13])	drug sensitivity score (Vero E6 [14])	relative viability EC50 (HepG2 [15]) [µM]
CC(C)Oc1ccc(Cc2ccc(NC3=NCCN3)cc2)cc1	102	96.1	99.3	99.4	82.3	104	99.8	95.7	96.6	88.2	102	94.6	104	97.4	71.6	95.3	102	95.3	98.4	90.7	96.9	97.6	101	99.5	96.7	> 10	> 10	> 10	> 10	0.5	0	1.6	0	0	–
FC(F)c1nc2ccccc2n1-c1nc(N2CCOCC2)nc(N2CCOCC2)n1 [ZSTK-474]	102	99.2	97.9	68.2	27.1	101	102	95.3	84	40.6	105	106	98.5	75.6	34.3	96	97.4	98.1	95.6	60	95.2	101	90.3	69.8	42.4	1.14	1.51	–	0.768	7.9	5.6	6.9	2.7	6.8	1.25
O=C(O)CCc1c[nH]c2ccccc12	–	–	–	–	–	98.7	95.5	95.2	90.4	107	116	96.7	110	105	108	98.5	108	106	107	106	97.3	99.5	104	102	102	–	> 10	> 10	> 10	–	0	0	0	0	> 10
Cc1ccc(NC(=O)C(C)C)cc1C1CCN(Cc2ccc(Oc3ccc(F)c(F)c3)cc2)CC1	90.7	101	98.4	98.3	62.8	–	–	–	–	–	105	97.4	97.4	103	31.5	96.2	95.8	99.5	94.6	80.3	106	102	99.5	100	75.3	–	–	> 10	> 10	2	–	3.5	1.2	0.9	3.39
FC(F)(F)c1cccc(C2=CCN(CCc3ccc4ccccc4c3)CC2)c1 [xaliproden]	106	88.6	89	104	107	109	105	95.5	109	95.9	–	–	–	–	–	98.4	96.3	99.5	105	111	100	89.7	92.7	92.7	104	> 10	> 10	> 10	> 10	0	0	–	0	0	–
Cc1ccc(=O)n(-c2ccccc2)c1 [pirfenidone]	99.3	93.6	102	99.7	100	103	95.3	107	103	109	91.7	100	106	98.8	104	–	–	–	–	–	107	104	105	103	100	> 10	> 10	–	> 10	0	0	0	–	0	> 10
Cn1cc(CCn2cnc(-c3cnn(C)c3)c2-c2ccc(C#N)cc2)cn1 [BAZ2-ICR]	–	–	–	–	–	–	–	–	–	–	–	–	–	–	–	–	–	–	–	–	–	–	–	–	–	> 10	> 10	–	> 10	0	0	0	0	0	> 10
C[C@@]1(C(=O)O)NCCc2cc(O)c(O)cc21 [salsolinol-1-carboxylic-acid]	103	101	97.4	109	106	98.9	105	103	106	107	100	106	95	94.3	107	–	–	–	–	–	100	95.2	94.8	92.2	104	> 10	> 10	–	> 10	0	0	0	–	0	> 10
CCC[C@H](N[C@@H](C)C(=O)N1[C@H](C(=O)O)C[C@@H]2CCCC[C@@H]21)C(=O)OCC [perindopril]	107	99.9	94.4	101	99.5	97	86.8	93.1	90.1	102	99.1	105	95.8	97.2	92.4	–	–	–	–	–	99.4	105	98.1	97.3	98.8	> 10	> 10	–	> 10	0	0	0	–	0	> 10
O=[N+]([O-])c1cn2c(n1)OC[C@@H](OCc1ccc(OC(F)(F)F)cc1)C2 [pretomanid]	98.3	100	102	99.3	92.6	101	96.5	96.4	112	103	106	103	102	96.3	100	–	–	–	–	–	111	97.6	103	95.8	102	> 10	> 10	–	> 10	0	0	0	–	0	> 10
Nc1nccc(-c2ccc3noc(-c4ccc(Cl)cc4)c3c2)n1 [PIM-1-Inhibitor-2]	98	97	91.9	102	98.2	100	91.4	99	97	88.8	96.8	94.2	92.6	92.7	57.7	98.3	104	93.2	99.6	93.6	97.7	103	104	98.5	99.7	> 10	> 10	> 10	> 10	0	0	3.4	0	0	–
O=C(NC[C@H](O)CN1CCc2ccccc2C1)c1cc(NC2COC2)ncn1	96.1	92	91	95.5	91.2	103	113	104	102	91	109	104	102	88.2	64.4	102	97	97.5	100	101	97.5	97.2	100	95.8	98.9	> 10	> 10	> 10	> 10	0	0	3.4	0	0	–
CN1c2ccccc2C(=O)N2CCc3c([nH]c4ccccc34)C21 (stereo in doubt) [evodiamine]	101	99.6	104	76.1	55.7	96.8	89.9	96.7	80.6	62.4	91.3	94.5	98.6	47.3	36.3	94.7	93.7	99.7	83.6	43	89.9	100	95.8	74.1	33.7	–	–	1.44	1.27	5.2	3.8	9.9	5.5	6.7	0.508
Cc1cc(C)cc(NC(=O)Cc2ccc(OC(C)(C)C(=O)O)cc2)c1 [efaproxiral]	–	–	–	–	–	98.6	103	104	101	105	107	107	104	101	96.4	97.7	95.7	98.9	93.5	94.3	98.5	97.5	101	101	98.2	–	> 10	> 10	> 10	–	0	0	0	0	> 10
C[C@]12CC[C@H]3[C@@H](CC[C@@]45O[C@@H]4C(O)=C(C#N)C[C@]35C)[C@@H]1CC[C@@H]2O [trilostane]	105	92.9	99.9	97.6	99.3	–	–	–	–	–	–	–	–	–	–	98.8	103	105	105	97.9	91.3	98.5	92.8	92.4	102	> 10	–	> 10	> 10	0	–	–	0	0	–
C[C@H]1[C@@H](O)O[C@@H]2O[C@@]3(C)CC[C@H]4[C@H](C)CC[C@@H]1[C@@]24OO3 [ARTENIMOL]	100	102	100	88.9	79.8	93.8	94.8	97.5	101	98.6	106	100	96.4	97.2	71.8	96.5	104	92.4	82.4	31.8	115	99.1	101	103	95.9	> 10	> 10	1.57	> 10	1.7	0	1.6	6.3	0	–
NC[C@H]1CC[C@H](C(=O)O)CC1 [tranexamic-acid]	106	105	104	98.3	96.4	101	95.5	87.8	94.7	90.9	–	–	–	–	–	–	–	–	–	–	98.1	101	105	94.4	103	> 10	> 10	–	> 10	0	0	–	–	0	–
